The text below walks through data of patent US20220273608A1, “Methods for Treating Bone-Related Disorders” (University of Maryland, Baltimore, priority 2016, published 2022).

Structures are written as SMILES. “Also recorded” adds a separate entry of the source. Read-outs that look alike come from different tables or passages of the source.

The test system of test [1] is Ocy454 cells. The experiment in a line: Ca2+ imaging (Fluo-4) of Ocy454 cells, with or without fluid shear stress. Type of test: cell-based, mouse. On the procedure:
(§1) Cells in culture were exposed to fluid flow using a custom FSS device (63). Cell media was removed and cells were rinsed in HEPES-buffered Ringer solution containing 140 mM NaCl, 4 mM KCl, 1 mM MgSO4, 5 mM NaHCO3, 10 mM glucose, 1.8 mM CaCl2 and 10 mM HEPES (pH 7.3). Ringer solution was also used as fluid flow buffer. For Calcium-free conditions, HEPES-buffered Manganese Ringer solution, containing 140 mM NaCl, 4 mM KCl, 1 mM MgSO4, 5 mM NaHCO3, 10 mM glucose, 2 mM MnCI and 10 mM HEPES (pH 7.3), was used, and cells were loaded with BATPA AM ester (10 μM, 30 min). […] For Ca^2+ imaging, cells were loaded with Fluo-4 AM ester (ThermoFisher, 5 μM) for 30 min, washed, and allowed to rest for 15 min to allow dye de-esterification, as described. For ROS imaging, cells were loaded with CellROX (ThermoFisher, 5 μM) for 30 min and then washed 3 times, per the manufacturer's recommendations. Individual wells were imaged as described (39). Time-lapse fluorescence intensity measurements were collected using ImageJ Time Series Analyzer plugin and data was analyzed and plotted using Origin Pro software. Final results represent a minimum of three independent experiments performed on separate days with new cultures (n>700 cells/treatment group). All conditions were run with controls on each experimental day.

Test [2] relates to sclerostin. The experiment in a line: Immunoblotting for sclerostin / GAPDH in Ocy454 cells. The test is classed as cell-based, mouse. The note with it: for sclerostin protein: independently of FSS. The protocol: (§2) Cells in culture were exposed to fluid flow using a custom FSS device (63). Cell media was removed and cells were rinsed in HEPES-buffered Ringer solution containing 140 mM NaCl, 4 mM KCl, 1 mM MgSO4, 5 mM NaHCO3, 10 mM glucose, 1.8 mM CaCl2 and 10 mM HEPES (pH 7.3). Ringer solution was also used as fluid flow buffer. For Calcium-free conditions, HEPES-buffered Manganese Ringer solution, containing 140 mM NaCl, 4 mM KCl, 1 mM MgSO4, 5 mM NaHCO3, 10 mM glucose, 2 mM MnCI and 10 mM HEPES (pH 7.3), was used, and cells were loaded with BATPA AM ester (10 μM, 30 min).

Test [3] deals with CaMKII. The test is classed as cell-based. The settings on record: for phospho-CaMKII (CaMKII activation): independently of FSS. The protocol:
as §2

Test [4] has as its system Ocy454 cells. The experiment in a line: ROS imaging (CellROX) of Ocy454 cells. The note with it: for ROS production: no FSS, CellROX. The test is classed as cell-based, mouse. The protocol: as §1
Test [5] deals with Ocy454 cells. Briefly: Immunostaining for α-tubulin (microtubule network) in Ocy454 cells. The note with it: α-tubulin immunofluorescence.
In test [6] the test system is Glu-tubulin. The note with it: Ocy454 cells in vitro.
Excerpt: The antibodies used were: a-tubulin (Sigma, T9026), Glu-tubulin (Abcam, ab48389) and TRPV4 (Abcam, ab39260).
Western blotting of whole cell extracts isolated from cells in culture following FSS or extracts isolated from murine long bone were done. Equal amounts of protein were loaded and electrophoresed on 10% SDS-PAGE gels and transferred to polyvinylidene difluoride membranes. Membranes were blocked in 5% non-fat dry milk (unless otherwise stated), probed with the indicated primary antibodies overnight and 4° C. Antibodies were detected with the appropriate horseradish peroxidase-conjugated secondary antibodies (Cell Signaling Technology) and enhanced chemiluminescence detection reagent (Biorad). […] Blots were acquired using an EpiChem gel documentation system (UVP Bioimaging Systems) and analyzed using ImageJ software.
The subject of test [7] is Glu-tubulin. Briefly: Glu-tubulin in ex vivo murine long bone (western blot). The note with it: murine cortical bone ex vivo. The source says: The antibodies used were: sclerostin (R&D Sytems, AF1589), α-tubulin (Sigma, T9026), Glu-tubulin (Abcam, ab48389), phospho-CamK II Thr^286 (Cell Signaling Technologies, 12716S), total CaMKII (Cell Signaling Technologies, 11945S), and GAPDH (Millipore, MAB374).

Test [8] deals with Ocy454 cells. Briefly: Atomic force microscopy nano-indentation of Ocy454 cells. Type of test: cell-based, mouse. The note with it: AFM nanoindentation, 2 h treatment.
Description: Ocy454 cells were plated onto 22 mm×22 mm glass coverslips and allowed to grow for 16-24 h at 37° C., 5% CO2 with αMEM media. Thereafter, cells were washed with PBS before being incubated with pharmacological agents as indicated for 2 h at 37° C., 5% CO2 in αMEM. After each treatment, cells were transferred to 60 mm culture dishes with pre-warmed HEPES based media containing identical concentrations of the aforementioned agents. Cells were probed with an MFP-1D atomic force microscope (Asylum Research) using MLCT cantilevers (Bruker) with a nominal spring constant of k=0.01 N/m. The pull distance used was 2 μm with a tip velocity of 4 μm/s to generate ˜1-2 nN of force onto the cell corresponding to ˜1 μm indentation ensuring that the cytoskeleton was effectively being probed. The elastic moduli (stiffness) of the cells were calculated using the Sneddon Hertz model as described (66).
The subject of test [9] is sclerostin. The experiment in a line: Bone derived sclerostin in colchicine treated aged mice. The test is classed as in vivo. The settings on record: aged mice (78 weeks), 1 mg/L colcrys in drinking water, 8 weeks.
Test [10] deals with aged mice. The experiment in a line: White adipose tissue in colchicine treated aged mice.
The test system of test [11] is aged mice. Briefly: Bone formation and bone mass (DEXA, microCT) in colchicine treated aged mice. Type of test: in vivo.
The test system of test [12] is aged mice. Briefly: Muscle testing in colchicine treated aged mice. Type of test: in vivo. The settings on record: 8 weeks colchicine. On the procedure:
Young and aged mice were treated with colchicine as per the bone formation study followed by euthanasia and muscle testing. After 8 weeks aged mice had increased muscle power.

The mark [13] stands for this setting: whole body DEXA, 8 weeks colchicine.
Where [14] appears, read: cells treated with H2O2, no FSS.

Take `OO` [H2O2, Hydrogen peroxide]: the “intracellular Ca2+” value in test [1] (no FSS, Fluo-4) is reported as “stimulated”. The sclerostin protein result in test [2] is given as “reduced”. In [3], the “phospho-CaMKII (CaMKII activation)” value was “increased”. Further, the ROS production result in test [4] is given as “stimulated”.

Consider `CC(=O)OCOC(=O)CN(CC(=O)OCOC(C)=O)c1ccccc1OCCOc1ccccc1N(CC(=O)OCOC(C)=O)CC(=O)OCOC(C)=O` [BAPTA AM], for which the “FSS-induced decrease in sclerostin protein” value (from here on “FSS-induced decrease”) in [2] (4 dynes/cm^2 FSS) is “inhibited”. For the same compound, the “FSS-induced CaMKII phosphorylation” value in test [3] (4 dynes/cm^2 FSS) is given as “inhibited”.

`COc1ccc(S(=O)(=O)N(CCO)c2ccccc2CN(C)C/C=C/c2ccc(Cl)cc2)cc1` [KN-93]: in [2] (4 dynes/cm^2 FSS), the “FSS-induced decrease” value is listed as “prevented”.

In the case of `CC(C)C[C@H](NC(=O)c1cc2ccccc2s1)C(=O)N1CCN(C(=O)[C@H](CO)NS(=O)(=O)c2ccc(Cl)cc2Cl)CC1` [GSK-1016790A], the sclerostin protein result in test [2] was “reduction”. For the same compound, the “phospho-CaMKII (CaMKII activation)” value in test [3] is “activation”. For the same compound, the ROS production entry in test [4] is recorded as “insufficient to induce”.

As to `CC(=O)O[C@H]1C(=O)[C@@]2(C)[C@H]([C@H](OC(=O)c3ccccc3)[C@]3(O)C[C@H](OC(=O)[C@H](O)[C@@H](NC(=O)c4ccccc4)c4ccccc4)C(C)=C1C3(C)C)[C@]1(OC(C)=O)CO[C@@H]1C[C@@H]2O` [Taxol], the “% Cells Responding to FSS, Ca2+ response (mechano-sensitivity)” value (“% Cells Responding to FSS, Ca2+ response” below) in [1] (4 dynes/cm^2 FSS) is on record as “statistically significant decrease”; in test [1] (16 dynes/cm^2 FSS), “restored”. Also, the “FSS-induced Ca2+ response” value in test [1] (4 dynes/cm^2 FSS) is reported as “blunts”. Besides, the “Peak(ΔF/F) magnitude of Ca2+ response (mechano-responsiveness)” value (“Peak(ΔF/F) magnitude of Ca2+ response” for short) in [1] (4 dynes/cm^2 FSS) is “decrease”; in [1] (16 dynes/cm^2 FSS), “restored”. Besides, the “FSS-induced decrease” value is on record as “blunts” in test [2] (4 dynes/cm^2 FSS) and “restored” in test [2] (16 dynes/cm^2 FSS). The “microtubule network density / structure” value in [5] is listed as “increase in microtubule density”. For the same compound, the “FSS-induced CaMKII phosphorylation” value in test [3] (4 dynes/cm^2 FSS) is recorded as “reduced; also recorded: blunts”; in test [3] (16 dynes/cm^2 FSS), “restored”. For the same compound, the results for the “amount of Glu-tubulin” value in [6] and in [7] were “markedly increased; also recorded: marked increase” and “markedly increased”, respectively. Moreover, the “elastic modulus (cytoskeletal stiffness)” value in test [8] is recorded as “increased”.

Take `COc1cc2c(c(OC)c1OC)-c1ccc(OC)c(=O)cc1[C@@H](NC(C)=O)CC2` [colchicine]: in [9], the bone derived sclerostin result is listed as “decreased; also recorded: reduced”. In addition, in test [1] (4 dynes/cm^2 FSS), the “% Cells Responding to FSS, Ca2+ response” value is given as “decreased” and the “Peak(ΔF/F) magnitude of Ca2+ response” value is recorded as “reducing”. In test [1] (16 dynes/cm^2 FSS), the “% Cells Responding to FSS, Ca2+ response” value was “decreased” and the “Peak(ΔF/F) magnitude of Ca2+ response” value was “reducing”. The “FSS-induced decrease” value in [2] (4 dynes/cm^2 FSS) is given as “eliminated”. In test [5], the “microtubule network density / structure” value is on record as “reduction”. In addition, the “white adipose accumulation / fat mass in white adipose depots” value in test [10] is listed as “reduced”. Also, in test [10] (8 weeks colchicine), the adipocyte area turned out to be 1441.64 μm^2, the gonadal fat entry is reported as “reduced” and the inguinal fat entry is reported as “reduced”. The “FSS-induced CaMKII phosphorylation” value in test [3] (4 dynes/cm^2 FSS) is given as “eliminated”. Besides, in [11] (8 weeks colchicine), the trabecular bone mass result is reported as “No changes were observed”. Besides, in test [11] (aged mice), the bone accumulation result is given as “increases”. Besides, the “bone formation rate (BFR) on the cortical bone perimeter” value in test [11] (aged mice (78 weeks), 1 mg/L colcrys in drinking water, 8 weeks) was “increased; also recorded: improved”. For the same compound, in test [11] (microCT, 8 weeks colchicine), the cortical bone volume result is “tended towards increases” and the “polar mean moment of inertia” value is “tended towards increases”. In [11] (setting [13]), the “bone mineral content (BMC)” value is “tended towards increases” and the “bone mineral density (BMD)” value is recorded as “tended towards increases”. In [12], the maximum contraction velocity result is “increase”, the maximum muscle power entry is recorded as “increase; also recorded: improved” and the “muscle mass in the gastrocnemius muscle” value was “did not increase”.

In the case of `O=C(NC1(c2ccccc2)CC1)c1c(CN2CCC(N3CCCCC3)CC2)c(-c2cccc(C(F)(F)F)c2)nc2cc(Br)ccc12` [GSK2193874], in test [1] (4 dynes/cm^2 FSS), the “% Cells Responding to FSS, Ca2+ response” value is on record as “statistically significant decrease” and the “Peak(ΔF/F) magnitude of Ca2+ response” value is given as “statistically significant decrease”. Also, the “H2O2-induced Ca2+ influx” value in [1] (setting [14]) is “blunted”. Further, in test [2] (4 dynes/cm^2 FSS), the “FSS-induced decrease” value is listed as “blunted”. Further, the “FSS-induced CaMKII phosphorylation” value in [3] (4 dynes/cm^2 FSS) is “reduction”. Besides, the “H2O2-induced ROS” value in test [4] (setting [14]) is reported as “without affecting”.

As for `CC(=O)N[C@@H](CS)C(=O)O` [NAC, N-acetylcysteine], the “FSS-induced Ca2+ response” value in test [1] (4 dynes/cm^2 FSS) and in [1] (16 dynes/cm^2 FSS) was “abrogated” each time. Besides, the “FSS-induced decrease” value in test [2] (FSS, magnitude not stated) is on record as “blunting”. Besides, the “FSS-induced CaMKII phosphorylation” value in test [3] (FSS, magnitude not stated) is recorded as “reduction”.
